Reference: patent US20160264616A1, “THERAPEUTIC COMPOUNDS AND METHODS” (priority 2015, published 2016)
Entries after “also recorded” stand apart in the source; their conditions may differ.

Tests used:
RGS17 [1] = target: T1, RGS17 (Homo sapiens, UniProt Q9UGC6); experiment: Isothermal titration calorimetry (ITC); format: binding; conditions: for Gibbs free energy of binding / binding enthalpy ΔH / entropic component TΔS / Kd: ITC; for Kd: 25 C, read-out: dissociation constant (Kd)
T1 construct: This is the same RGS17 construct used in the high throughput screening campaign that is fully active despite the N-terminal truncation; made in house
T1 sequence (Q9UGC6 84-200 limits assumed): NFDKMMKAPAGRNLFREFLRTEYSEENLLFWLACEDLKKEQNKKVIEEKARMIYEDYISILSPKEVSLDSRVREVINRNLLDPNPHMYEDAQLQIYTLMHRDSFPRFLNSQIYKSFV
Procedure: ITC was used to determine the binding properties of the lead compounds in solution by determining the dissociation constant (Kd) and stoichiometry (n) of the interaction between RGS17 and the inhibitor compounds.
RGS17 was concentrated in ITC sample buffer (50 mM HEPES pH 7.5, 100 mM NaCl and 1 mM beta-mercaptoethanol) at 50 μM. […] DMSO concentration in both compound and RGS17 sample was 1%, to account for any DMSO effects. Total injections for UI-1956 were set to 5 μL with a duration time of 10 secs and spacing of 240 secs and for UI-5 were set to 12 μL with a duration time of 24 secs and spacing of 240 secs. The total amount of injections for UI-1956 and UI-5 were, 32 and 23 respectively. All experiments were conducted on a GE MicroCal VP-ITC System (General Electric; Piscataway, N.J.) at 25 C. Heats of dilution were determined by averaging the heat evolved by the last five injections and subtracted from the raw data. The values for affinity, stoichiometry and change in enthalpy were then determined using the ORIGIN software provided by the manufacturer.

[2] = target: T2, RGS17:Gαo protein:protein interaction (Homo sapiens, UniProt Q9UGC6); experiment: Compound reversibility, washed/unwashed AlphaScreen; format: binding; conditions: RGS17 incubated with 100 μM, washed three times
T2 construct: This is the same RGS17 construct used in the high throughput screening campaign that is fully active despite the N-terminal truncation; made in house; host or cells: BL21 (DE3) E. coli for Gαo
T2 sequence (Q9UGC6 84-200 limits assumed): T1 sequence (Q9UGC6 84-200 limits assumed)
Procedure: To determine the reversibility of compound inhibition of the RGS17:Gαo protein:protein interaction, RGS17 was treated with 100 μM compound. This concentration was determined through the earlier dose-response experiments to inhibit the AlphaScreen assay >25% for each of the compounds (UI-5, UI-1590, UI-1907 and UI-1956). Upon completion of incubation with compounds, each sample was washed three times with ASB buffer. This method will promote dissociation of any compounds that are non-covalent where as any covalent modifiers would result in persistent protein:protein interaction inhibition.
First, stock solutions of all four compounds were made at a 3× concentration or 300 μM for a final concentration of 100 μM. The final DMSO concentration in the assay was 1%. Next, RGS17 and Gαo were diluted into 300 μL of assay buffer (AlphaScreen Buffer: ASB) (50 mM HEPES, 100 mM NaCl, 0.1% Lubrol, 1% bovine serum albumin [BSA], pH 8.0) at a 3× concentration of 30 nM. Next, 7.2 μL of AlphaScreen beads were added to each separate protein. The protein and bead solution was incubated on ice for 30 mins in the dark. Upon completion of protein:bead conjugation, 600 μL of ASB was added to RGS17. To the Gαo sample, 279 μL of AMF (final concentration of 10 μM NaF, […], 10 nM AlCl3, and 5 μM GDP) and 321 μL of ASB were added. The RGS17 sample was split into 90 μL tubes and 90 μL of each compound or DMSO vehicle was added to the RGS17:bead mixture and incubated for 15 mins. Upon completion of compound incubation, the RGS17:bead mixture was washed 3 times with 1.8 mL of ASB. The RGS17 protein:bead samples were pelleted after each wash through centrifugation at 15, 000×g for 10 mins. After the final wash step, the RGS17 protein:bead pellet was resuspended in 180 μL of ASB. Next, to a 384 white plate, 30 μL of the RGS17 protein:bead: compound samples either washed or unwashed were added to each well in triplicate. Finally, 15 μL of the Gαo protein:bead sample was added to each well. The plate was incubated at room temperature, in the dark, for 1.25 hours and read on a Synergy2 plate reader (Biotek, Wisnooski, Vt.) with a sensitivity setting of 200, excitation at 680 nm, and emission read at 570 nm. All data was analyzed with Graphpad Prism 6.0. All data was compared to DMSO controls and corrected for possible bead loss due to washing steps.

RGS4 = RGS4 (Homo sapiens, UniProt P49798); experiment: Selectivity versus RGS4; format: biochemical
Procedure: Characterization of UI-5, UI-1590 and UI-1956 to determine mechanism of action focused initially on the determination of the potential irreversible modification of the RGS protein by the compounds. […] These compounds were tested for selectivity versus RGS4 which was chosen as a model protein due to its high level of sensitivity to thiol modification (18).

[3] = Solubility in aqueous ITC buffer
RGS17 [4] = target: T1, RGS17; experiment: Differential scanning fluorimetry (DSF) with RGS17; format: binding; conditions: 50 μM compound; for effect on RGS17 thermal stability (DSF): versus DMSO
Procedure: Further evaluation of the compounds designated UI-5, UI-1590, UI-1907 and UI-1956 was conducted using Differential Scanning Fluorimetry (DSF). This method allows for the rapid measurement of protein stability based on the melting temperature (Tm) of the target protein that is bound by ligand. A shift of Tm indicates a change in protein stability to melting due to stabilization added by the small molecule binding to the target protein. The four compounds were incubated at 50 μM with RGS17 or Gαo in the presence of Sypro Orange. In aqueous solution the fluorescence emission from the dye is very weak. However, when the dye binds to hydrophobic regions of a protein a significant increase in florescence intensity is observed intensity (20). The hydrophobic parts of a native, fully folded, protein in solution are generally buried within the protein and therefore not accessible to the dye resulting in little fluorescence emission. When the protein unfolds the dye molecules can bind to the exposed hydrophobic regions of the proteins, resulting in increased fluorescence. […] UI-5, UI-1590 and UI-1956 shifted RGS17's Tm by 2.1° C., 1.4° C. and 1.0° C., respectively (FIG. 4B). These three compounds were further characterized for activity against RGS17.
Differential scanning fluorimetry experiments were carried out using white 384-well μltraAMP PCR plates (Sorenson BioSciences; Salt Lake City, Utah). All experiments were carried out as previously described by Phillips and Hernandez de la Pena.(55) In brief, a 1:2000 dilution of Sypro Orange was made by adding 1 μL of Sypro Orange to 2 mL of PBS at pH 7.5. First, 1.2 mg/mL protein was incubated with 50 μM of each compound at room temperature for 15 min in a 10 μL volume. Upon completion of the incubation, 110 μL of the Sypro Orange-PBS solution was added to each compound/protein mixture. This yielded a final volume of 120 μL containing 0.1 mg/mL protein. Finally, 20 μL of the Sypro Orange/compound/protein mix for each compound and RGS17 or Gαo proteins was added to four wells of the 384-well plate. The experiment was run on the Roche LightCycler 480 (Roche, Switzerland) using a two-step method. Starting with a 25° C. baseline step and a second step with a target temperature of 95° C. with continuous acquisition and set acquisition rate of 3 per ° C. All data was collected using the Roche LightCycler data acquisition ability and analyzed with Graphpad Prism 6.0, using first and second derivatives of the fluorescent melting curves.

Sequence of RGS4 (P49798 whole entry, species assumed): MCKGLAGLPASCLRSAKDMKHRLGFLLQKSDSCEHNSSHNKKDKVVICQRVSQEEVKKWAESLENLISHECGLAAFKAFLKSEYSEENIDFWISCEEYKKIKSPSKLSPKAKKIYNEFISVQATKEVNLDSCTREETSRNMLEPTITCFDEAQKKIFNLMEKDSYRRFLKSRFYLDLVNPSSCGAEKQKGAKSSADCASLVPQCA

| SMILES | dissociation constants as determined by isothermal titration calorimetry (summary) (RGS17 [1]) | Gibbs free energy of binding (RGS17 [1]) [kcal/mol] | binding enthalpy ΔH (RGS17 [1]) [kcal/mol] | entropic component TΔS (RGS17 [1]) [kcal/mol] | Kd (RGS17 [1]) [µM] | reversibility of inhibition after washing [2] | inhibition of RGS4 (RGS4) | selectivity RGS17 versus RGS4 (RGS4) | solubility at the high concentration needed for ITC [3] | shift of RGS17 Tm (RGS17 [4]) [°C] | effect on RGS17 thermal stability (DSF) (RGS17 [4]) |
| --- | --- | --- | --- | --- | --- | --- | --- | --- | --- | --- | --- |
| C[n+]1cc2c3c(ccc2c2ccc4cc5c(cc4c21)OCO5)OCO3 [UI-5] | low μM to nM | -8.168 | -0.148 | 8.0202 | 1.02 | reversible | inhibited both RGS-4 and RGS-17 | more selective for RGS17 | soluble in the aqueous buffer | 2.1 | stabilize RGS17 against thermal denaturing |
| CC(C)=CCC[C@]1(C)C=Cc2c(O)c3c(c(CC=C(C)C)c2O1)O[C@]12C(=C[C@@H]4C[C@H]1C(C)(C)O[C@@]2(C/C=C(/C)C(=O)O)C4=O)C3=O [UI-1907] | – | – | – | – | – | reversible | – | – | – | – | alter the thermal stability of both RGS17 and Gαo; also recorded: bind both the RGS and G protein subunit in a non-specific manner |
| O=c1c(-c2cc(O)c(O)c(O)c2)coc2cc(O)c(O)c(O)c12 [UI-1956, 5,6,7-trihydroxy-3-(3,4,5-trihydroxyphenyl)-4H-chromen-4-one] | low μM to nM | -8.389 | -2.158 | 6.2313 | 0.714 | reversible | – | selective for RGS17 | soluble in the aqueous buffer | 1.0 | stabilize RGS17 against thermal denaturing |
| CC1=C(O)C(=O)C=C2C1=CC=C1[C@@]2(C)CC[C@@]2(C)[C@@H]3C[C@](C)(C(=O)O)CC[C@]3(C)CC[C@]12C [UI-1590] | low μM to nM | – | – | – | – | reversible | inhibited both RGS-4 and RGS-17 | more selective for RGS17 | not soluble at the high concentration required; also recorded: not amendable to ITC due to solubility issues | 1.4 | stabilize RGS17 against thermal denaturing |
